Results as given in patent US20230101747A1 (Schrödinger, Inc., priority 2019, published 2023).
pIC50: −log10 of the molar value.

How the values were obtained:
[1] = test system: phosphorylation of MCM2 S53 (CDC7 substrate) in colo205 cells; test: Phosphorylated MCM2 MSD electrochemiluminescence assay; format: cell-based; settings: Homo sapiens, COLO 205; colo205 cells, 20 h incubation; read-out: pMCM2-S53 MSD Colo205 IC50
Method: Phosphorylated MCM2 MSD Electrochemiluminescence Assay
The effect of CDC7 inhibitors on cellular phosphorylation of the CDC7 substrate MCM2 was determined using the following protocol:
A total of 40,000 colo205 cells in 100 uL culture medium (1640 medium+10% Fetal bovine serum+1% Penicillin-Streptomycin) were plated in 96-well cell culture plates and allowed to attach for 6 hours. 3-fold serial dilutions of test compounds were prepared in completed PBS at 25× final concentration and 4 uL of each were added to the cells and incubated for 20 hours at 37° C., 5% CO2. Each concentration was tested in duplicate. After the 20 h incubation, cells were washed with 150 uL PBS and lysed with 40 uL MSD lysis buffer (obtained from Meso Scale Diagnostics) supplied with 1× complete ULTRA cocktail inhibitor (obtained from Roche). To detect phosphorylation of MCM2 S53, 30 μL of capture antibody solution (obtained from Abnova, catalog number H00004171-M01, 1:500) was added to each well of MULTI-ARRAY 96-well High Bind Plate, and incubated overnight. The antibody solution was removed, wells blocked with BSA solution and plates washed, followed by addition of 30 ul of cell lysate per well. After 2 h incubation, plates were washed. 30 μL of 1× detection antibody solution (obtained from Abcam, catalog number ab109133, 1:1000) was then added to each well and incubate for 1 hour. Plates were washed and 30 μL of 1× secondary antibody solution (obtained from MSD, catalog number R32AB-1, 1:5000) was added to each well and incubate for 1 hour. Plates were washed and 150 μL of 1× Read Buffer T was added to each well of the MSD plate. The electrochemiluminescence signal was measured on a MESO SECTOR S600 plate reader. The percentage of remaining phosphorylated MCM2 signal was calculated following the equation below.
HC (high control): Cells treated with DMSO Cpds: Cells treated with test compounds LC (low control): Cells treated with positive control CDC7 inhibitor

[2] = biological target: T1, Full length human CDC7 protein co-expressed with DBF4 (Homo sapiens, UniProt O00311); test: CDC7 kinase biochemical assay (ADP-Glo, PDKtide substrate); settings: 0.1 nM CDC7/DBF4, 1 uM ATP, 10 uM PDKtide, 4 h; read-out: CDC7 ADP-Glo PDKtide IC50
T1 construct: Full length human CDC7 protein co-expressed with DBF4; purchased SignalChem (China)
T1 sequence (O00311 whole entry): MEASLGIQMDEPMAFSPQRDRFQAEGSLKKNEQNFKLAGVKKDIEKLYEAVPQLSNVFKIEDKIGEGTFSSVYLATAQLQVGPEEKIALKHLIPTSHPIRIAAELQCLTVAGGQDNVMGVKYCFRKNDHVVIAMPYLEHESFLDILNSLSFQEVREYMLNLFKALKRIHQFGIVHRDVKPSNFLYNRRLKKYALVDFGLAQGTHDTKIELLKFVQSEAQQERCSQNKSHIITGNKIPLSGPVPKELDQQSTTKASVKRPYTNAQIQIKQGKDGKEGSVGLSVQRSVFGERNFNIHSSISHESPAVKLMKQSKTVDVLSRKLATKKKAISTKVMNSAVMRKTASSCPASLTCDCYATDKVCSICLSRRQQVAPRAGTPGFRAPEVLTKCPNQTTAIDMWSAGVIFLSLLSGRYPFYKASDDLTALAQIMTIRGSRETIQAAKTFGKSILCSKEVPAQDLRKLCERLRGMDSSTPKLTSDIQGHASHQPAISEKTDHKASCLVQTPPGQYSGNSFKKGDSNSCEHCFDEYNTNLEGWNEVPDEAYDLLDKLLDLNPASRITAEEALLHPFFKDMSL
T1 sequence (Q9UBU7 whole entry partner): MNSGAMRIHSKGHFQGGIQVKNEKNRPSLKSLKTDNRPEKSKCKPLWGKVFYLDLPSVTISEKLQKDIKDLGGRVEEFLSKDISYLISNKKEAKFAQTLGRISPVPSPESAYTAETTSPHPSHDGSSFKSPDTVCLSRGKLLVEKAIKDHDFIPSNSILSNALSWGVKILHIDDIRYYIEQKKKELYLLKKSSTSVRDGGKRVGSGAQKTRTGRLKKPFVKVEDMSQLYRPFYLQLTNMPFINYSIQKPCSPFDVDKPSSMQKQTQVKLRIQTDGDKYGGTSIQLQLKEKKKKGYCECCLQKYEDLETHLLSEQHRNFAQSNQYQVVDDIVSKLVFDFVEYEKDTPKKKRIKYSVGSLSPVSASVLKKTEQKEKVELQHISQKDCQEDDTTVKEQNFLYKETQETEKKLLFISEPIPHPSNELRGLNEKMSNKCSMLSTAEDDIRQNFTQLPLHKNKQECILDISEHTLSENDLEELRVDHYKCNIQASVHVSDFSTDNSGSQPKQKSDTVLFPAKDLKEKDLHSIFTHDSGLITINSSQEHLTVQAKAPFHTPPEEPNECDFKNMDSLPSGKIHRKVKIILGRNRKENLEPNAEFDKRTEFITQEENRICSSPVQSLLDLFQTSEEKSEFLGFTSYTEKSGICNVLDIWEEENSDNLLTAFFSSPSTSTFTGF
Procedure, shortened: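 Full-length human CDC7 co-expressed with DBF4 (0.1 nM) incubated 4 h with 1 uM ATP and 10 uM PDKtide in 40 mM Tris pH 7.5, 20 mM MgCl2, 0.1 mg/ml BSA, 50 uM DTT. ADP formed read by ADP-Glo luminescence. % inhibition scaled between DMSO (high) and reference CDC7 inhibitor (low) controls.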

Structure (SMILES)	pIC50 [1]	pIC50 [2]
O=C1N[C@@H]([C@@H]2CC(F)(F)CN2)CN2CC(F)(F)Cc3c(-c4cn[nH]c4)sc1c32 [Compound 135, (10R)-10-[(2S)-4,4-difluoropyrrolidin-2-yl]-6,6-difluoro-3-(1H-pyrazol-4-yl)-2-thia-8,11-diazatricyclo[6.4.1.04,13]trideca-1(13),3-dien-12-one]	7.57	> 9.00
CN1CC(F)(F)C[C@H]1[C@H]1CN2CC(F)(F)Cc3c(-c4cn[nH]c4)sc(c32)C(=O)N1 [Compound 136, (R)-7-((S)-4,4-difluoro-1-methylpyrrolidin-2-yl)-4,4-difluoro-2-(1H-pyrazol-4-yl)-4,5,7,8-tetrahydro-3H-1-thia-5a,8-diazabenzo[cd]azulen-9(6H)-one]	7.80	> 9.00
O=C1N[C@@H](COC(F)F)CN2CC(F)(F)Cc3c(-c4cn[nH]c4)sc1c32 [Compound 142, (R)-7-((difluoromethoxy)methyl)-4,4-difluoro-2-(1H-pyrazol-4-yl)-4,5,7,8-tetrahydro-3H-1-thia-5a,8-diazabenzo[cd]azulen-9(6H)-one]	8.30	> 9.00
